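GI50 = concentration required for 50% inhibition of growth. TGI: concentration producing complete growth inhibition.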
How the values were obtained:
Assay in all cases: NCI tumour cell line growth inhibition, 384-well format
LOX IMVI melanoma = test system: LOX IMVI melanoma
MDA-MB-435 melanoma = test system: MDA-MB-435 melanoma
HOP-92 NSCLC = test system: HOP-92 NSCLC
SK-MEL-28 melanoma = test system: SK-MEL-28 melanoma
A498 renal = test system: A498 renal
MALME-3M melanoma = test system: MALME-3M melanoma
PC-3 prostate = test system: PC-3 prostate
U251 glioblastoma = test system: U251 glioblastoma
786-0 renal = test system: 786-0 renal
MDA-MB-231 breast = test system: MDA-MB-231 breast
BT-549 breast = test system: BT-549 breast
RXF 393 renal = test system: RXF 393 renal
SF-268 CNS = test system: SF-268 CNS
MOLT-4 leukemia = test system: MOLT-4 leukemia
RPMI-8226 leukemia = test system: RPMI-8226 leukemia
MCF7 breast = test system: MCF7 breast
SNB-19 CNS = test system: SNB-19 CNS
UO-31 renal = test system: UO-31 renal
K-562 leukemia = test system: K-562 leukemia
HCT-116 colon = test system: HCT-116 colon
UACC-62 melanoma = test system: UACC-62 melanoma
SN12C renal = test system: SN12C renal
EKVX NSCLC = test system: EKVX NSCLC
SF-539 CNS = test system: SF-539 CNS
HL-60(TB) leukemia = test system: HL-60(TB) leukemia
KM12 colon = test system: KM12 colon
OVCAR-3 ovarian = test system: OVCAR-3 ovarian
CAKI-1 renal = test system: CAKI-1 renal
SF-295 CNS = test system: SF-295 CNS
NCI-H322M lung = test system: NCI-H322M lung
NCI-H226 lung = test system: NCI-H226 lung
DU-145 prostate = test system: DU-145 prostate
NCI-H460 NSCLC = test system: NCI-H460 NSCLC
ACHN renal = test system: ACHN renal
T-47D breast = test system: T-47D breast
A549 NSCLC = test system: A549 NSCLC
OVCAR-4 ovarian = test system: OVCAR-4 ovarian
SW-620 colon = test system: SW-620 colon
SNB-75 CNS = test system: SNB-75 CNS
HCC-2998 colon = test system: HCC-2998 colon
SK-MEL-5 melanoma = test system: SK-MEL-5 melanoma
MDA-MB-468 breast = test system: MDA-MB-468 breast
NCI/ADR-RES ovarian = test system: NCI/ADR-RES ovarian
NCI-H522 lung = test system: NCI-H522 lung
HCT-15 colon = test system: HCT-15 colon
M14 melanoma = test system: M14 melanoma
UACC-257 melanoma = test system: UACC-257 melanoma
TK-10 renal = test system: TK-10 renal
HS 578T breast = test system: HS 578T breast
CCRF-CEM leukemia = test system: CCRF-CEM leukemia
HT29 colon = test system: HT29 colon
OVCAR-8 ovarian = test system: OVCAR-8 ovarian
IGROV1 ovarian = test system: IGROV1 ovarian
SK-OV-3 ovarian = test system: SK-OV-3 ovarian
COLO 205 colon = test system: COLO 205 colon
HOP-62 NSCLC = test system: HOP-62 NSCLC
SR leukemia = test system: SR leukemia
NCI-H23 lung = test system: NCI-H23 lung

## Cc1nc2ccc(NC(=O)CCNC(=O)CCCc3ccc(CC(C(=O)O)C(=O)O)cc3)cc2s1
LOX IMVI melanoma
  GI50: > 100 µM
  TGI: > 100 µM
MDA-MB-435 melanoma
  GI50: > 100 µM
  TGI: > 100 µM
HOP-92 NSCLC
  GI50: > 100 µM
  TGI: > 100 µM
SK-MEL-28 melanoma
  GI50: > 100 µM
  TGI: > 100 µM
A498 renal
  GI50: > 100 µM
  TGI: > 100 µM
MALME-3M melanoma
  GI50: > 100 µM
  TGI: > 100 µM
PC-3 prostate
  GI50: > 100 µM
  TGI: > 100 µM
U251 glioblastoma
  GI50: > 100 µM
  TGI: > 100 µM
786-0 renal
  GI50: > 100 µM
  TGI: > 100 µM
MDA-MB-231 breast
  GI50: > 100 µM
  TGI: > 100 µM
BT-549 breast
  GI50: > 100 µM
  TGI: > 100 µM
RXF 393 renal
  GI50: > 100 µM
  TGI: > 100 µM
SF-268 CNS
  GI50: > 100 µM
  TGI: > 100 µM
MOLT-4 leukemia
  GI50: > 100 µM
  TGI: > 100 µM
RPMI-8226 leukemia
  GI50: > 100 µM
  TGI: > 100 µM
MCF7 breast
  GI50: > 100 µM
  TGI: > 100 µM
SNB-19 CNS
  GI50: > 100 µM
  TGI: > 100 µM
UO-31 renal
  GI50: > 100 µM
  TGI: > 100 µM
K-562 leukemia
  GI50: > 100 µM
  TGI: > 100 µM
HCT-116 colon
  GI50: > 100 µM
  TGI: > 100 µM
UACC-62 melanoma
  GI50: > 100 µM
  TGI: > 100 µM
SN12C renal
  GI50: > 100 µM
  TGI: > 100 µM
EKVX NSCLC
  GI50: > 100 µM
  TGI: > 100 µM
SF-539 CNS
  GI50: > 100 µM
  TGI: > 100 µM
HL-60(TB) leukemia
  GI50: > 100 µM
  TGI: > 100 µM
KM12 colon
  GI50: > 100 µM
  TGI: > 100 µM
OVCAR-3 ovarian
  GI50: > 100 µM
  TGI: > 100 µM
CAKI-1 renal
  GI50: > 100 µM
  TGI: > 100 µM
SF-295 CNS
  GI50: > 100 µM
  TGI: > 100 µM
NCI-H322M lung
  GI50: > 100 µM
  TGI: > 100 µM
NCI-H226 lung
  GI50: > 100 µM
  TGI: > 100 µM
DU-145 prostate
  GI50: > 100 µM
  TGI: > 100 µM
NCI-H460 NSCLC
  GI50: > 100 µM
  TGI: > 100 µM
ACHN renal
  GI50: > 100 µM
  TGI: > 100 µM
T-47D breast
  GI50: > 100 µM
  TGI: > 100 µM
A549 NSCLC
  GI50: > 100 µM
  TGI: > 100 µM
OVCAR-4 ovarian
  GI50: > 100 µM
  TGI: > 100 µM
SW-620 colon
  GI50: > 100 µM
  TGI: > 100 µM
SNB-75 CNS
  GI50: > 100 µM
  TGI: > 100 µM
HCC-2998 colon
  GI50: > 100 µM
  TGI: > 100 µM
SK-MEL-5 melanoma
  GI50: > 100 µM
  TGI: > 100 µM
MDA-MB-468 breast
  GI50: > 100 µM
  TGI: > 100 µM
NCI/ADR-RES ovarian
  GI50: > 100 µM
  TGI: > 100 µM
NCI-H522 lung
  GI50: > 100 µM
  TGI: > 100 µM
HCT-15 colon
  GI50: > 100 µM
  TGI: > 100 µM
M14 melanoma
  GI50: > 100 µM
  TGI: > 100 µM
UACC-257 melanoma
  GI50: > 100 µM
  TGI: > 100 µM
TK-10 renal
  GI50: > 100 µM
  TGI: > 100 µM
HS 578T breast
  GI50: > 100 µM
  TGI: > 100 µM
CCRF-CEM leukemia
  GI50: > 100 µM
  TGI: > 100 µM
HT29 colon
  GI50: > 100 µM
  TGI: > 100 µM
OVCAR-8 ovarian
  GI50: > 100 µM
  TGI: > 100 µM
IGROV1 ovarian
  GI50: > 100 µM
  TGI: > 100 µM
SK-OV-3 ovarian
  GI50: > 100 µM
  TGI: > 100 µM
COLO 205 colon
  GI50: > 100 µM
  TGI: > 100 µM
HOP-62 NSCLC
  GI50: > 100 µM
  TGI: > 100 µM
SR leukemia
  GI50: > 100 µM
  TGI: > 100 µM
NCI-H23 lung
  GI50: > 100 µM
  TGI: > 100 µM

From PubChem BioAssay (NCI)
